Experimental data taken from patent US20250230438A1, “NEURAL REPAIR THROUGH INHIBITION OF REG3A SIGNALING” (UNIVERSITY OF SOUTH CAROLINA, priority 2023, published 2025).
“Also recorded” adds a separate entry of the source.

B1: recREG3A: recombinant human REG3A (recREG3A) (protein)
chain: EDFQKEVPSPRTSCPMGYKAYRSHCYALVMTPKSWFQADLVCQKRPSGHLVSILSGGEASFVSSLVNGRVDNYQDIWIGLHDPTMGQQPNGGGWEWSNSDVLNYLNWDGDPSSTVNRGHCGSLTASSGFLKWGDYYCDGTLPFVCKFKQ

Legend:
KHSRP = test: Axonal KHSRP protein levels in DRG cultures; type: cell-based, mouse; conditions: for effect on recREG3A-dependent increase in axonal KHSRP: co-treatment with recREG3A
From the text: (§1) Specifically, it was observed that KHSRP protein increases in regenerating sciatic nerve axons, which promotes decay of regeneration-associated mRNAs including Gap43 and Snap25 mRNAs. Thus, herein it was investigated whether REG3A effects might converge on Khsrp mRNA.

[1] = system: dorsal root ganglia (DRG) neurons; test: Axon growth and branching in dissociated adult mouse DRG cultures; type: cell-based; conditions: for effect on recREG3A-induced decrease in axon growth / effect on recREG3A-induced increase in axon branching: co-treatment with recREG3A
From the text: Previously, it was shown that Reg3A mRNA expression increases after nerve injury and the mRNA is transported into regenerating peripheral nerve axons and spinal cord axon. The spinal cord model used a peripheral nerve graft to support regenerating of ascending spinal cord axons after transection. To determine if REG3A protein might affect axon growth, whether the dorsal root ganglia (DRG) neurons respond to recombinant human REG3A (recREG3A) was investigated.
shRNA depletion of Reg3A mRNA was used to determine if the endogenous REG3A protein reduces axon growth.
as §1

growth cone calcium = test: Axonal/growth cone calcium by GCaMP fluorescence in DRG spot cultures; type: cell-based, mouse; conditions: DRG spot cultures with AAV9-GCaMP
From the text: The findings above provide circumstantial but not direct evidence for elevated axoplasmic calcium as a key regulator of REG3A's effects on axons. As such, herein it was investigated whether REG3A increases calcium levels in DRG neurons using genetically encoded GCaMP fluorescent calcium indicator in DRG spot cultures. For this, DRG spot cultures were co-transduced with AAV9-GCaMP. […] Axonal calcium levels are known to increase immediately after axotomy but based on translational regulation of different axonal mRNAs that respond to elevated vs. normal axonal calcium levels, the axotomy induced increase in calcium returns to pre-injury levels within 16 hours after axotomy to allow translation of axonal mRNAs encoding regeneration-associated proteins. Thus, intra-axonal calcium levels in regenerating axons were monitored beginning at 16 hours after axotomy. The regenerating axons show an oscillatory GCaMP signal with broad peaks approximately every 50-70 min over a 4-hour period in AAV9-shCntl-transduced DRG spot cultures (FIG. 8E).

eIF2α^PS51 = eIF2α^PS51 immunofluorescence in growth cones of DRG cultures; type: cell-based; conditions: acute treatment of adult mouse DRG cultures
From the text: Previously, it was observed that axonal Khsrp mRNA translation is increased by activation of the PERK and subsequent PERK-dependent serine 51 phosphorylation of the translation initiation factor eIF2a. […] PERK inhibition similar reduced the REG3A-dependent translation of axonal GFP^MYR5′/3′khsrp in FRAP assays (FIG. 9C).

| Molecule | effect on recREG3A-dependent increase in axonal KHSRP (KHSRP) | effect on recREG3A-induced decrease in axon growth [1] | effect on recREG3A-induced increase in axon branching [1] | axon branching ([1]; bath application of recREG3A, adult mouse sensory neurons) | axon growth ([1]; bath application of recREG3A, adult mouse sensory neurons, 24-hour exposure) | KHSRP levels in distal axons (KHSRP; recREG3A application) | growth cone / intra-axonal calcium levels (GCaMP) (growth cone calcium) | growth cone / intra-axonal calcium levels (GCaMP) (growth cone calcium; listed as RecREG3A) | eIF2α^PS51 levels in growth cones (eIF2α^PS51) |
| --- | --- | --- | --- | --- | --- | --- | --- | --- | --- |
| O=C(O)CN(CC(=O)O)c1ccccc1OCCOc1ccccc1N(CC(=O)O)CC(=O)O [BAPTA] | also attenuated | – | – | – | – | – | – | – | – |
| C[C@@H]1C[C@@H]([C@H](O)CC2CC(=O)NC(=O)C2)C(=O)[C@@H](C)C1 [cycloheximide] | did not occur | prevented | prevented | – | – | – | – | – | – |
| CC(=O)OCOC(=O)CN(CC(=O)OCOC(C)=O)c1ccccc1OCCOc1ccccc1N(CC(=O)OCOC(C)=O)CC(=O)OCOC(C)=O [BAPTA-AM] | attenuated | blocked | blocked | – | – | – | – | – | – |
| B1 | – | – | – | increased axon branching | reduced axon growth; also recorded: decreases axon extension | increased KHSRP levels in distal axons | significantly increased growth cone calcium | increases | increased eIF2α^PS51 levels in growth cones |
